These results are taken from patent US11426412B2, “Imidazo-pyridine compounds as PAD inhibitors” (JUBILANT EPIPAD LLC, priority 2017, dated 2022).

The test has as its target PAD4 (Homo sapiens (Human), UniProt Q9UM07). The test can be described thus: Ammonia release biochemical assay (citrullination).
The mark [1] stands for this setting: read-out: NH3 release biochemical assay PAD4 IC50.
The mark [2] stands for this setting: Table 1, class A, read-out: IC50 value, ammonia release biochemical assay.

Counter-ions that a name gives are not always drawn. Like-named read-outs stand apart in the source and are kept apart here.

PAD4, sequence (Q9UM07 whole entry): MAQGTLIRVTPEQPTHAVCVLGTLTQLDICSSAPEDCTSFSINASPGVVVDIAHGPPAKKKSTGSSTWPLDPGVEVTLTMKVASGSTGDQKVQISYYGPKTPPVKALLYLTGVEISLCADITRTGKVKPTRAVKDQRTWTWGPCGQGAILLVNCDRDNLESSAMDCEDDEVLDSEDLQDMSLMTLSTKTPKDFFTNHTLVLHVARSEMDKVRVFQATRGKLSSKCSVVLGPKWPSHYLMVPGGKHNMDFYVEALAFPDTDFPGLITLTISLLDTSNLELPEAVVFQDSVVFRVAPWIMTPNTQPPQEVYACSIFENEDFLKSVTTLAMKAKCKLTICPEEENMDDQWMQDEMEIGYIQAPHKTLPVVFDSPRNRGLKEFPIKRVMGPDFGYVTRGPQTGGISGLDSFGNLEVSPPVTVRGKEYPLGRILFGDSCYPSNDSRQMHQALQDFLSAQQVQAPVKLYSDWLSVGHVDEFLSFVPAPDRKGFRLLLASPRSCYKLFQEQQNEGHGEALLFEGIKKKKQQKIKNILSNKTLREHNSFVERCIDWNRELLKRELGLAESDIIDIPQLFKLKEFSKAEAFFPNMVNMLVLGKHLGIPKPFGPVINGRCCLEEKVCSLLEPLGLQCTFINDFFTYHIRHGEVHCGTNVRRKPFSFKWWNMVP
Procedure: Ammonia Release Biochemical Assay
Citrullination assay was detected via ammonia release. […] The reaction was stopped after 60 min by addition of stop/detection buffer containing 50 mM EDTA, 2.6 mM of o-phthaladehyde and 2.6 mM DTT.

The IC50 is the midpoint of a concentration-inhibition curve. Consider `Cc1c(-c2c(Br)c3ccccc3n2CC2CC2)nc2cc(C(=O)N3CCC[C@@H](N)C3)ccn12` [Compound 1, (R)-(3-Aminopiperidin-1-yl)(2-(3-bromo-1-(cyclopropylmethyl)-1H-indol-2-yl)-3-methylimidazo[1,2-a]pyridin-7-yl)methanone], for which, under setting [1], the half-maximal inhibitory concentration (IC50) was > 10000 nM.

In the case of `CCn1c(-c2nc3cc(C(=O)N4CCC[C@@H](N)C4)ccn3c2C)cc2ccccc21` [Compound 4, (R)-(3-Aminopiperidin-1-yl)(2-(1-ethyl-1H-indol-2-yl)-3-methylimidazo[1,2-a]pyridin-7-yl)methanone], the IC50 is ≤ 1000 nM under setting [2] and < 1000 nM under setting [1].

Consider `CCn1c(-c2nc3cc(C(=O)N4CCC[C@@H](N)C4)ccn3c2C)c(-c2ccccc2)c2ccccc21` [Compound 5, (R)-(3-Aminopiperidin-1-yl)(2-(1-ethyl-3-phenyl-1H-indol-2-yl)-3-methylimidazo[1,2-a]pyridin-7-yl)methanone], for which the IC50 under setting [1] was > 10000 nM.

Take `CCn1c(-c2nc3cc(C(=O)N4CC[C@@H](N)C4)ccn3c2C)c(-c2ccccc2)c2ccccc21` [Compound 6, (R)-(3-Aminopyrrolidin-1-yl)(2-(1-ethyl-3-phenyl-1H-indol-2-yl)-3-methylimidazo[1,2-a]pyridin-7-yl)methanone]: the IC50 under setting [1] is > 10000 nM.

For the compound `CCn1c(-c2nc3cc(C(=O)N4CC[C@@H](N)C4)ccn3c2C)cc2ccccc21` [Compound 7, (R)-(3-Aminopyrrolidin-1-yl)(2-(1-ethyl-1H-indol-2-yl)-3-methylimidazo[1,2-a]pyridin-7-yl)methanone], the IC50 under setting [1] was > 10000 nM.

For `Cc1c(-c2cc3ccccc3n2CC2CC2)nc2cc(C(=O)N3CC[C@@H](N)C3)ccn12` [Compound 8, (R)-(3-Aminopyrrolidin-1-yl)(2-(1-(cyclopropylmethyl)-1H-indol-2-yl)-3-methylimidazo[1,2-a]pyridin-7-yl)methanone], the IC50 under setting [1] was > 10000 nM.

Consider `Cc1c(-c2cc3ccccc3n2Cc2cccc(F)c2)nc2cc(C(=O)N3CCC[C@@H](N)C3)ccn12` [Compound 35, (R)-(3-aminopiperidin-1-yl)(2-(1-(3-fluorobenzyl)-1H-indol-2-yl)-3-methylimidazo[1,2-a]pyridin-7-yl)methanone], for which, under setting [1], the IC50 was < 1000 nM.

In the case of `Cc1c(-c2cc3ccccc3n2Cc2ccoc2)nc2cc(C(=O)N3CCC[C@@H](N)C3)ccn12` [Compound 37, (R)-(3-aminopiperidin-1-yl)(2-(1-(furan-3-ylmethyl)-1H-indol-2-yl)-3-methylimidazo[1,2-a]pyridin-7-yl)methanone], the IC50 under setting [1] is < 1000 nM.

For the compound `Cc1csc(Cn2c(-c3nc4cc(C(=O)N5CCC[C@@H](N)C5)ccn4c3C)cc3ccccc32)n1` [Compound 41, (R)-(3-aminopiperidin-1-yl)(3-methyl-2-(1-((4-methylthiazol-2-yl)methyl)-1H-indol-2-yl)imidazo[1,2-a]pyridin-7-yl)methanone], the 50% inhibitory concentration (IC50) is ≤ 1000 nM under setting [2] and < 1000 nM under setting [1].

For `Cc1c(-c2cc3cccc(Cl)c3n2CC2CC2)nc2cc(C(=O)N3CCC[C@@H](N)C3)ccn12` [Compound 44, (R)-(3-aminopiperidin-1-yl)(2-(7-chloro-1-(cyclopropylmethyl)-1H-indol-2-yl)-3-methylimidazo[1,2-a]pyridin-7-yl)methanone], the IC50 is ≤ 1000 nM under setting [2] and < 1000 nM under setting [1].

Take `Cc1c(-c2cc3ccccc3n2Cc2ccc(F)cc2)nc2cc(C(=S)N3CCC[C@@H](N)C3)ccn12` [Compound 45, (R)-(3-aminopiperidin-1-yl)(2-(1-(4-fluorobenzyl)-1H-indol-2-yl)-3-methylimidazo[1,2-a]pyridin-7-yl)methanethione]: the IC50 under setting [2] was ≤ 1000 nM and the IC50 under setting [1] was < 1000 nM.

Regarding `Cc1c(-c2cc3ccccc3n2C)nc2cc(C(=O)N3CCC[C@@H](N)C3)ccn12` [Compound 46, (R)-(3-aminopiperidin-1-yl)(3-methyl-2-(1-methyl-1H-indol-2-yl)imidazo[1,2-a]pyridin-7-yl)methanone], under setting [1], the IC50 was > 10000 nM.

As for `COc1cccc2cc(-c3nc4cc(C(=O)N5CCC[C@@H](N)C5)ccn4c3C)n(CC3CC3)c12` [Compound 47, (R)-(3-aminopiperidin-1-yl)(2-(1-(cyclopropylmethyl)-7-methoxy-1H-indol-2-yl)-3-methylimidazo[1,2-a]pyridin-7-yl)methanone], the IC50 reads like this: under setting [2], ≤ 1000 nM; under setting [1], < 1000 nM.

For the compound `Cc1ncc(Cn2c(-c3nc4cc(C(=O)N5CCC[C@@H](N)C5)ccn4c3C)cc3ccccc32)s1` [Compound 49, (R)-(3-aminopiperidin-1-yl)(3-methyl-2-(1-((2-methylthiazol-5-yl)methyl)-1H-indol-2-yl)imidazo[1,2-a]pyridin-7-yl)methanone], the IC50 was ≤ 1000 nM under setting [2] and < 1000 nM under setting [1].

As to `COc1ccc2cc(-c3nc4cc(C(=O)N5CCC[C@@H](N)C5)ccn4c3C)n(Cc3cccnc3)c2c1` [Compound 51, (R)-(3-aminopiperidin-1-yl) (2-(6-methoxy-1-(pyridin-3-ylmethyl)-1H-indol-2-yl)-3-methylimidazo[1,2-a]pyridin-7-yl)methanone], under setting [1], the IC50 is < 1000 nM.

As to `COc1cccc(Cn2c(-c3nc4cc(C(=O)N5CCC[C@@H](N)C5)ccn4c3C)cc3cc(F)ccc32)c1` [Compound 53, (R)-(3-aminopiperidin-1-yl)(2-(5-fluoro-1-(3-methoxybenzyl)-1H-indol-2-yl)-3-methylimidazo[1,2-a]pyridin-7-yl)methanone], the IC50 under setting [1] was < 1000 nM.

With `Cc1c(-c2cc3ccc(F)cc3n2Cc2ccc(F)cc2)nc2cc(C(=O)N3CCC[C@@H](N)C3)ccn12` [Compound 54, (R)-(3-aminopiperidin-1-yl)(2-(6-fluoro-1-(4-fluorobenzyl)-1H-indol-2-yl)-3-methylimidazo[1,2-a]pyridin-7-yl)methanone], the IC50 under setting [1] is < 1000 nM.

Take `COc1cccc(Cn2c(-c3nc4cc(C(=O)N5CCC[C@@H](N)C5)ccn4c3C)cc3cc(F)c(F)cc32)c1` [Compound 55, (R)-(3-aminopiperidin-1-yl)(2-(5,6-difluoro-1-(3-methoxybenzyl)-1H-indol-2-yl)-3-methylimidazo[1,2-a]pyridin-7-yl)methanone]: the IC50 under setting [1] is < 1000 nM.

`Cc1c(-c2cc3ccccc3n2Cc2cncnc2)nc2cc(C(=O)N3CCC[C@@H](N)C3)ccn12` [Compound 58, (R)-(3-aminopiperidin-1-yl) (3-methyl-2-(1-(pyrimidin-5-ylmethyl)-1H-indol-2-yl)imidazo[1,2-a]pyridin-7-yl)methanone Trifluoroacetic Acid Salt]: the IC50 is ≤ 1000 nM under setting [2] and < 1000 nM under setting [1].

Consider `Cc1c(-c2cc3ccccc3n2CC(C)C)nc2cc(C(=O)N3CCC[C@@H](N)C3)ccn12` [Compound 60, (R)-(3-aminopiperidin-1-yl)(2-(1-isobutyl-1H-indol-2-yl)-3-methylimidazo[1,2-a]pyridin-7-yl)methanone], for which, under setting [1], the IC50 is < 1000 nM.

`Cc1c(-c2cc3ccccc3n2CC2CCC2)nc2cc(C(=O)N3CCC[C@@H](N)C3)ccn12` [Compound 61, (R)-(3-aminopiperidin-1-yl)(2-(1-(cyclobutylmethyl)-1H-indol-2-yl)-3-methylimidazo[1,2-a]pyridin-7-yl)methanone]: the IC50 under setting [1] is < 1000 nM.

`Cc1c(-c2cc3ccccc3n2Cc2ncccc2F)nc2cc(C(=O)N3CCC[C@@H](N)C3)ccn12` [Compound 62, (R)-(3-aminopiperidin-1-yl)(2-(1-((3-fluoropyridin-2-yl)methyl)-1H-indol-2-yl)-3-methylimidazo[1,2-a]pyridin-7-yl)methanone]: under setting [1], the IC50 was < 1000 nM.

Take `COc1ccc(Cn2c(-c3nc4cc(C(=O)N5CCC[C@@H](N)C5)ccn4c3C)cc3ccccc32)nc1` [Compound 63, (R)-(3-aminopiperidin-1-yl)(2-(1-((5-methoxypyridin-2-yl)methyl)-1H-indol-2-yl)-3-methylimidazo[1,2-a]pyridin-7-yl)methanone]: the IC50 under setting [1] was < 1000 nM.

With `COCCn1c(-c2nc3cc(C(=O)N4CCC[C@@H](N)C4)ccn3c2C)cc2ccccc21` [Compound 64, (R)-(3-aminopiperidin-1-yl) (2-(1-(2-methoxyethyl)-1H-indol-2-yl)-3-methylimidazo[1,2-a]pyridin-7-yl)methanone], under setting [1], the IC50 was < 1000 nM.

In the case of `COc1ccc2cc(-c3nc4cc(C(=O)N5CCC[C@@H](N)C5)ccn4c3C)n(Cc3ccncc3)c2c1` [Compound 66, (R)-(3-aminopiperidin-1-yl)(2-(6-methoxy-1-(pyridin-4-ylmethyl)-1H-indol-2-yl)-3-methylimidazo[1,2-a]pyridin-7-yl)methanone], under setting [1], the half-inhibitory concentration (IC50) was > 10000 nM.

With `CCn1c(-c2nc3cc(C(=O)N4CCC[C@@H](N)C4)ccn3c2C)cc2ccc(OC)cc21` [Compound 67, (R)-(3-aminopiperidin-1-yl)(2-(1-ethyl-6-methoxy-1H-indol-2-yl)-3-methylimidazo[1,2-a]pyridin-7-yl)methanone], the IC50 under setting [1] is < 1000 nM.

In the case of `Cc1c(-c2cc3ccc(F)cc3n2Cc2ccncc2)nc2cc(C(=O)N3CCC[C@@H](N)C3)ccn12` [Compound 68, (R)-(3-aminopiperidin-1-yl)(2-(6-fluoro-1-(pyridin-4-ylmethyl)-1H-indol-2-yl)-3-methylimidazo[1,2-a]pyridin-7-yl)methanone], the IC50 under setting [1] was < 1000 nM.

Take `Cc1c(-c2cc3ccc(F)cc3n2Cc2cccnc2)nc2cc(C(=O)N3CCC[C@@H](N)C3)ccn12` [Compound 69, (R)-(3-aminopiperidin-1-yl)(2-(6-fluoro-1-(pyridin-3-ylmethyl)-1H-indol-2-yl)-3-methylimidazo[1,2-a]pyridin-7-yl)methanone]: the IC50 under setting [1] was < 1000 nM.

Turning to `COc1cccc(Cn2c(-c3nc4cc(C(=O)N5CCC[C@@H](N)C5)ccn4c3C)cc3ccc(F)cc32)c1` [Compound 70, (R)-(3-aminopiperidin-1-yl)(2-(6-fluoro-1-(3-methoxybenzyl)-1H-indol-2-yl)-3-methylimidazo[1,2-a]pyridin-7-yl)methanone], the IC50 under setting [1] was < 1000 nM.

`COc1ccc(Cn2c(-c3nc4cc(C(=O)N5CCC[C@@H](N)C5)ccn4c3C)cc3ccc(F)cc32)cc1` [Compound 71, (R)-(3-aminopiperidin-1-yl)(2-(6-fluoro-1-(4-methoxybenzyl)-1H-indol-2-yl)-3-methylimidazo[1,2-a]pyridin-7-yl)methanone]: the IC50 under setting [1] was < 1000 nM.
